“Also recorded” adds a separate entry of the source.
Assays:
[1] = tested on: barnacle cement polymerization; test: Barnacle cement polymerization in presence of anticoagulants, protein profile by SDS-PAGE; format: biochemical; details: for inhibition of polymerization of barnacle cement (number and intensity of proteins): 2 μl anticoagulant added to 1 μl unpolymerized cement of thick, gummy phenotype barnacle, 2 minutes, versus distilled water
Protocol: FIG. 6. Protein profile for barnacle cement polymerized in the presence of distilled water (control) or one of 5 anticoagulants heparin, warfarin, trypsin inhibitor, EGTA or EDTA. Each peak represents an individual protein. For each treatment, 2 μl of either distilled water or anticoagulant was added to 1 μl unpolymerized cement taken from a thick, gummy phenotype barnacle. Polymerization was allowed to proceed for 2 minutes. Samples were analyzed with SDS-PAGE using a 4-20% acrylamide gel. The gel was stained with Coomassie Blue and analyzed using Scion Image.
Each peak represents an individual protein. For each treatment, 2 μl of either distilled water or anticoagulant was added to 1 μl unpolymerized cement taken from a thick, gummy phenotype barnacle. Polymerization was allowed to proceed for 2 minutes. Samples were analyzed with SDS-PAGE using a 4-20% acrylamide gel. The gel was stained with Coomassie Blue and analyzed using Scion Image.

[2] = tested on: serine proteases active in barnacle cement polymerization; test: SDS-PAGE protein signature of unpolymerized barnacle glue with and without heparin; format: biochemical; details: reducing SDS-PAGE, 4-20% acrylamide gel, Coomassie Blue
Protocol: Techniques were developed and performed to harvest unpolymerized barnacle cement in microliter quantities. This enabled analysis of the proteins in barnacle cement using SDS-PAGE, which separates proteins based on size. SDS-PAGE provides a protein signature. SDS-PAGE was conducted under reducing conditions on a 4-20% acrylamide gradient gel in the presence and absence of heparin to determine any associated changes in protein signature (See FIG. 10). […] A precast, 4-20% acrylamide gel was used and stained with Coomassie Blue. […] The number of protein bands in the 85-115 kDa range is increased and of particular note, the 24 kDa protein and all the smaller peptides have disappeared in the presence of heparin.

barnacles = test: Barnacle reattachment assay (removal force); format: in vivo
Protocol: A barnacle reattachment assay was performed in the presence and absence of heparin. The barnacle reattachment assay (Rittschof et al., under review) allows for rapid assessment of barnacle adhesive strength. In this assay barnacles are grown on non-toxic silicone substrates. Barnacles are removed from the silicone surface using a hand-held mechanical force gauge. Removed barnacles are then placed on another surface to which they are allowed to reattach for one week. As cement production is continuous throughout a barnacle's life, reattachment is possible and strength of adhesion after one week is nearly identical to initial strength of adhesion (when removed from, and reattached to the same silicone substrate). This assay was utilized to determine if a coating on a surface decreases strength of adhesion by removing a barnacle from silicone and allowing it to reattach to test and control surfaces. Reattachment trials for heparin were conducted by removing a barnacle from a silicone panel and reattaching it to clean glass panels or heparin coated glass panels. […] The reattachment removal force for the barnacles is represented by the gray bars. Barnacles were reattached to glass panels coated with 0 (control), 0.1, 1.0 or 10.0 mg ml^−1 heparin for 7 days. The removal force decreased for all barnacles on heparin treatments. […] This pattern was shown on both heparin coated silicone and heparin coated glass. […] The same group of barnacles was successively reattached to the same treatment for 1, 2, 3 and 4 days (in that order); n=10 barnacles for dH2O and sucrose, n=10 for heparin 1 day, and n=9 for heparin 2, 3 and 4 days. […] Statistical comparisons were not conducted on 2, 3, and 4 day trials as there is a potential for the results to be influenced by previous reattachment trials.

For heparin, the “inhibitory effect on cement polymerization compared with the other anticoagulant compounds tested” value [1] was “most extensive and consistent inhibitory effect”, the “inhibition of polymerization of barnacle cement (number and intensity of proteins)” value (shortened to “inhibition”) [1] was “effectively inhibit the polymerization of barnacle cement” and the “bands smaller than 31 kDa (serine proteases and their peptide products)” value [2] was “do not appear when heparin is added”. For the same compound, the “protein signature of barnacle glue” value [2] was “significantly different”, the “mean removal force versus sucrose” value (barnacles; 1 mg ml^-1 coated T2 silicone, 1 day reattachment, p<0.05) was “significant difference from the sucrose results” and the “reattachment removal force versus initial removal force” value (barnacles; 10 mg ml^-1 heparin coated glass, 7 days, paired samples t-test p=0.017) was “highly significant difference from initial removal force”. For the same compound, the reattachment removal force (barnacles; glass panels coated with 0.1, 1.0 or 10.0 mg ml^-1 heparin, reattached 7 days) was “decreased”, the “force required for removal as concentration increases” value (barnacles; heparin 0.1 to 10 mg ml^-1, heparin coated silicone and heparin coated glass) was “stepwise decrease” and the “removal force over time reattached” value (barnacles; heparin coated surfaces, reattached 1, 2, 3 and 4 days) was “no increase in removal force with increasing time reattached”.
In the case of O=C(O)CN(CCN(CC(=O)O)CC(=O)O)CC(=O)O [EDTA], the “inhibition” value [1] was “effectively inhibit the polymerization of barnacle cement; also recorded: inhibited”.
In the case of CC(=O)CC(c1ccccc1)c1c(O)c2ccccc2oc1=O (stereo not drawn) [warfarin], the “inhibition” value [1] was “effectively inhibit the polymerization of barnacle cement”.
For O=C(O)CN(CCOCCOCCN(CC(=O)O)CC(=O)O)CC(=O)O [EGTA], the “inhibition” value [1] was “effectively inhibit the polymerization of barnacle cement; also recorded: inhibited”.
